Data: PubChem BioAssay (NCI)
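96-well plates; 48 h exposure; 5 concentrations. Endpoints by linear interpolation between flanking doses. Not reached: highest tested concentration assigned. The concentration for 50% growth inhibition is given as GI50. TGI: concentration producing complete growth inhibition.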

How the values were obtained:
Experiment in all cases: growth of human tumour cells (NCI), 48 h
OVCAR-5 ovarian = system: OVCAR-5 ovarian
A549 NSCLC = system: A549 NSCLC
PC-3 prostate = system: PC-3 prostate
OVCAR-4 ovarian = system: OVCAR-4 ovarian
SR leukemia = system: SR leukemia
KM12 colon = system: KM12 colon
UO-31 renal = system: UO-31 renal
HCT-15 colon = system: HCT-15 colon
HL-60(TB) leukemia = system: HL-60(TB) leukemia
CAKI-1 renal = system: CAKI-1 renal

| SMILES | TGI (OVCAR-5 ovarian) | TGI (A549 NSCLC) | TGI (PC-3 prostate) | TGI (OVCAR-4 ovarian) | TGI (SR leukemia) | TGI (KM12 colon) | TGI (UO-31 renal) | TGI (HCT-15 colon) | TGI (HL-60(TB) leukemia) | TGI (CAKI-1 renal) | GI50 (HL-60(TB) leukemia) | GI50 (A549 NSCLC) | GI50 (CAKI-1 renal) | GI50 (PC-3 prostate) | GI50 (SR leukemia) | GI50 (HCT-15 colon) |
| --- | --- | --- | --- | --- | --- | --- | --- | --- | --- | --- | --- | --- | --- | --- | --- | --- |
| COc1cc2oc(=O)cc(C)c2c(OC)c1OC | > 100 µM | > 100 µM | > 100 µM | > 100 µM | > 100 µM | > 100 µM | > 100 µM | > 100 µM | – | – | – | – | – | – | – | – |
| CCN(CC)C(=O)N1CN(c2ccccc2)C2(CCN(CCCC3(c4ccc(F)cc4)OCCO3)CC2)C1=O | – | > 100 µM | 34.9 µM | > 100 µM | 47.5 µM | 31.1 µM | 35.9 µM | 32.3 µM | 27.9 µM | > 100 µM | – | – | – | – | – | – |
| Nc1nc(=O)n(C2CC(O)C(CO)O2)c2nc(-c3ccc(-c4ccccc4)cc3)cnc12 (configuration not stated) | > 100 µM | > 100 µM | > 100 µM | > 100 µM | > 100 µM | – | > 100 µM | > 100 µM | – | > 100 µM | – | – | – | – | – | – |
| COC(=O)C1=C(C(=O)OC)C2CCC1CC2=O (configuration not stated) | > 100 µM | > 100 µM | > 100 µM | > 100 µM | > 100 µM | > 100 µM | > 100 µM | > 100 µM | – | > 100 µM | – | – | – | – | – | – |
| Cc1cn(C2CC(/[N+]([O-])=N\Nc3ccc([N+](=O)[O-])cc3)C(CO)O2)c(=O)[nH]c1=O (configuration not stated) | > 100 µM | > 100 µM | > 100 µM | – | > 100 µM | > 100 µM | > 100 µM | > 100 µM | > 100 µM | > 100 µM | – | – | – | – | – | – |
| CC(C)N=C(NC#N)NS(=O)(=O)c1cnccc1NC1CCCCCCC1 | > 100 µM | > 100 µM | > 100 µM | > 100 µM | > 100 µM | > 100 µM | > 100 µM | > 100 µM | – | > 100 µM | – | – | – | – | – | – |
| O=c1ccc2c(Cl)sc(Cl)c2[nH]1 | > 100 µM | > 100 µM | > 100 µM | > 100 µM | – | > 100 µM | > 100 µM | > 100 µM | – | > 100 µM | – | – | – | – | – | – |
| COC(=O)/C=C/[C@H]1[C@H](C)N1S(=O)(=O)c1ccc(C)cc1 (some centres not stated) | > 100 µM | > 100 µM | > 100 µM | > 100 µM | > 100 µM | > 100 µM | – | > 100 µM | > 100 µM | > 100 µM | – | – | – | – | – | – |
| COC(=O)c1cc(OCc2cc(OCc3ccc(Br)cc3)cc(OCc3ccc(Br)cc3)c2)cc(OCc2cc(OCc3ccc(Br)cc3)cc(OCc3ccc(Br)cc3)c2)c1 | > 100 µM | > 100 µM | > 100 µM | > 100 µM | – | > 100 µM | > 100 µM | > 100 µM | – | > 100 µM | – | – | – | – | – | – |
| Cc1cc(NS(=O)(=O)c2ccc(N=Nc3c(Nc4ccccc4)nn(-c4ccc(S(=O)(=O)Nc5ccncn5)cc4)c3C)cc2)no1 | > 100 µM | > 100 µM | > 100 µM | > 100 µM | – | > 100 µM | > 100 µM | > 100 µM | – | > 100 µM | – | – | – | – | – | – |
| COc1ccc(-c2nc3ccccc3c(=O)[nH]2)cc1OC | > 100 µM | > 100 µM | > 100 µM | > 100 µM | > 100 µM | > 100 µM | > 100 µM | > 100 µM | – | > 100 µM | – | – | – | – | – | – |
| [B]C(=O)NC(CC(C)C)C(=O)NC1c2ccsc2C(=O)C1O (configuration not stated) (tested in a mixture with another compound) | > 100 µM | > 100 µM | > 100 µM | > 100 µM | > 100 µM | > 100 µM | > 100 µM | > 100 µM | > 100 µM | – | – | – | – | – | – | – |
| CCCCCCCCC[C@@H]1C[C@H](O)[C@H](Cc2ccccc2)N1C(=O)OC(C)(C)C | 28.5 µM | 32.6 µM | – | 33 µM | 46.2 µM | 35.2 µM | 27.4 µM | 33.9 µM | 48.7 µM | 38.2 µM | – | – | – | – | – | – |
| COc1cc(/C=C2\CCCC3=C2N=C2SC=NN2C3c2cc(OC)c(OC)c(OC)c2)cc(OC)c1OC (configuration not stated) | – | > 100 µM | > 100 µM | – | 9.47 µM | – | – | 5.91 µM | 9.49 µM | > 100 µM | 2.93 µM | 2.95 µM | 3.43 µM | 3.1 µM | 2.55 µM | 2.25 µM |
| Cc1ccc(S(=O)(=O)N/N=C2/C3CC4CCC2C4C3)cc1 (configuration not stated) | > 100 µM | > 100 µM | > 100 µM | > 100 µM | – | > 100 µM | > 100 µM | > 100 µM | – | > 100 µM | – | – | – | – | – | – |
| COc1ccc(C(CC(=O)c2ccc(O)cc2)C(C(=O)c2ccc(O)cc2)C(c2ccc(OC)cc2)C2C(=O)NC(=S)NC2=O)cc1 (configuration not stated) | 49.6 µM | 89.9 µM | 59.8 µM | 63.2 µM | > 100 µM | 31.9 µM | 33.8 µM | 45.3 µM | 85.6 µM | – | – | – | – | – | – | – |
| COc1ccc(OC/C(N=Cc2cccnc2)=N/NC(=O)c2ccncc2)cc1 | > 100 µM | > 100 µM | > 100 µM | > 100 µM | – | > 100 µM | – | > 100 µM | > 100 µM | > 100 µM | – | – | – | – | – | – |
| COc1ccc([C@H]2C=C(c3cc(F)c(Cl)cc3Cl)N=c3s/c(=C\c4ccc(-c5ccc(Cl)cc5Cl)o4)c(=O)n32)cc1 | > 100 µM | > 100 µM | > 100 µM | > 100 µM | – | > 100 µM | > 100 µM | > 100 µM | – | > 100 µM | – | – | – | – | – | – |
| O=CC1C(=O)Nc2nc3ccccc3n2C1c1ccccc1 (configuration not stated) | 95.7 µM | 95.4 µM | 42.4 µM | 80.3 µM | – | 29.9 µM | 27.4 µM | 37 µM | > 100 µM | 48.5 µM | – | – | – | – | – | – |
| FC1(F)SC2CCCCCCCCCCC2C1(F)F (configuration not stated) | > 100 µM | > 100 µM | > 100 µM | > 100 µM | > 100 µM | – | > 100 µM | > 100 µM | 30.3 µM | > 100 µM | – | – | – | – | – | – |
| c1ccc2c[n+](Cc3ccnc4ccccc34)ccc2c1 | > 100 µM | > 100 µM | > 100 µM | > 100 µM | > 100 µM | > 100 µM | > 100 µM | > 100 µM | – | > 100 µM | – | – | – | – | – | – |
| O=C(CN1CCOCC1)c1ccc2c(c1)oc(=O)n2CCN1CCCCC1 | > 100 µM | – | > 100 µM | – | > 100 µM | > 100 µM | > 100 µM | > 100 µM | > 100 µM | > 100 µM | – | – | – | – | – | – |
